Laboratory results taken from patent US20230113037A1 (Bayer Aktiengesellschaft, priority 2019, published 2023).

Legend:
AHR [1] = biological target: T1, AHR (Homo sapiens, UniProt P35869); experiment: In vitro assay 1: antagonism in human cell line (AHR transactivation, firefly luciferase reporter, kynurenic acid prestimulated); assay type: cell-based; conditions: AHR Antagonism Human IC50 [M]
T1 construct: U87 MG glioblastoma cells (ATCC #HTB-14) endogenously expressing AHR; endogenous in cells; host or cells: U87 MG glioblastoma cells (ATCC #HTB-14)
T1 sequence (P35869 11-848): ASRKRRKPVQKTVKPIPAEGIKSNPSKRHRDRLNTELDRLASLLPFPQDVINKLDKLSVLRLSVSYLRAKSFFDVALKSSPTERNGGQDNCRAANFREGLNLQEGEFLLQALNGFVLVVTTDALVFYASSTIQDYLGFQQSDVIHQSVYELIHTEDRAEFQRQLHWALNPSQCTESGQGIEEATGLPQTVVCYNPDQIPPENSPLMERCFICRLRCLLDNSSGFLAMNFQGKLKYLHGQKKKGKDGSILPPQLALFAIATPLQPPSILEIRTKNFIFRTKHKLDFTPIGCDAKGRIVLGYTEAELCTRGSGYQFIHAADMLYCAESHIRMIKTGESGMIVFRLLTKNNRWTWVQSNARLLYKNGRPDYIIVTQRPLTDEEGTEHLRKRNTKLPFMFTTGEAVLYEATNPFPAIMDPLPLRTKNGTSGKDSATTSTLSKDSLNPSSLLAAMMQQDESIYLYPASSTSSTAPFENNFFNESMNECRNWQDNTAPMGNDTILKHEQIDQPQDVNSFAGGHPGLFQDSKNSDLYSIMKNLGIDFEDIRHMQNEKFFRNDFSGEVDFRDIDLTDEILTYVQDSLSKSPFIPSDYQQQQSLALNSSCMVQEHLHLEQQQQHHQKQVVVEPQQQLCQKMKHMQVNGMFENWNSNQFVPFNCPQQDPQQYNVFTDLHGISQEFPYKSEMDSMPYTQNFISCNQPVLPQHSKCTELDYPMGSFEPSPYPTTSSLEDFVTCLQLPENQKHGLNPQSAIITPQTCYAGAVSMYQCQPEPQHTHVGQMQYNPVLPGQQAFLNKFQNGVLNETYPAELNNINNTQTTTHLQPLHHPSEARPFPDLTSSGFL
Procedure, shortened: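 Antagonism is measured against kynurenic acid prestimulation in U87 MG glioblastoma cells carrying stable DRE-luciferase and Renilla reporters. Positive inhibition control: 150 μM kynurenic acid with 5 μM staurosporine. Values are normalized to controls; repeats are averaged or given as medians.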

AHR [2] = biological target: T2, AHR (Mus musculus, UniProt P30561); experiment: In vitro assay 3: antagonism in mouse cell line (AHR transactivation, firefly luciferase reporter, kynurenic acid prestimulated); assay type: cell-based; conditions: mouse Hepa 1c1c7 cells, 200 μM kynurenic acid, 20 hours, read-out: AHR Antagonism Mouse IC50
T2 sequence (P30561 1-848 P471L/N533S/M589L): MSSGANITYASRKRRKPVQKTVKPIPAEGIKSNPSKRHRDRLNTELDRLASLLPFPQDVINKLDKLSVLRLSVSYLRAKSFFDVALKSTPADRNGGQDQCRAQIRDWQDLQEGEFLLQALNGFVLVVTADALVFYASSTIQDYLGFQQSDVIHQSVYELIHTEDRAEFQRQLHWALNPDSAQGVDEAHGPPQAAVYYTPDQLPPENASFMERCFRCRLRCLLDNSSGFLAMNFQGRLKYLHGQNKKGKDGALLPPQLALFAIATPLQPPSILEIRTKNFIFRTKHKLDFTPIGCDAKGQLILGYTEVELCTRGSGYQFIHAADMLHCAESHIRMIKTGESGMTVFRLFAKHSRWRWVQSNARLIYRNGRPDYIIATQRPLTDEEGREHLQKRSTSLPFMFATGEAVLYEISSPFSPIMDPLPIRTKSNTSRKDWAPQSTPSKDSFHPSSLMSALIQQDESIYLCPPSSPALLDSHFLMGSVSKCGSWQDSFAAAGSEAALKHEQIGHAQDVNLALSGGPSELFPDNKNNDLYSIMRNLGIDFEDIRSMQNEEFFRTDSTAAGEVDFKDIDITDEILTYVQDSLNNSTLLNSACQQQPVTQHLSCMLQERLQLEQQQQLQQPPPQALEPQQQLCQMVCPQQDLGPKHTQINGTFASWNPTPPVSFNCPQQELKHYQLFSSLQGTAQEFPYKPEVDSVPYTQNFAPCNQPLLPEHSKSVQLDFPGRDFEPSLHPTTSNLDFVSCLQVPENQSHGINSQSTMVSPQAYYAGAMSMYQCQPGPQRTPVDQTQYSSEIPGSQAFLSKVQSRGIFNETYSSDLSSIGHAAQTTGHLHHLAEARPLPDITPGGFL
Procedure, shortened: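 Luminescence from an AHR-dependent DRE-luciferase reporter, stably integrated in mouse cells, quantifies blockade of kynurenic acid-driven activation. Unstimulated cells mark maximal inhibition; normalization uses both control types, and multiply tested compounds carry mean or median values.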

IC50 (AHR [1]) [M] | IC50 (AHR [2]) [nM] | SMILES
3.65e-08 | 7.87 | N#Cc1ccc(-c2nc3c4ccccc4nc(N[C@H]4CCCCNC4=O)n3n2)cc1 [Example 437, 4-(5-{[(3S)-2-oxoazepan-3-yl]amino}[1,2,4]triazolo[1,5-c]quinazolin-2-yl)benzonitrile]
2.9e-07 | 130 | CCCCNC(=O)CNc1nc2ccccc2c2nc(-c3ccc(S(C)(=O)=O)cc3)nn12 [Example 438, N-butyl-N^2-{2-[4-(methanesulfonyl)phenyl][1,2,4]triazolo[1,5-c]quinazolin-5-yl}glycinamide]
4.52e-08 | 27 | CCCNC(=O)[C@@H](C)Nc1nc2ccccc2c2nc(-c3ccc(S(C)(=O)=O)cc3)nn12 [Example 439, N^2-{2-[4-(methanesulfonyl)phenyl][1,2,4]triazolo[1,5-c]quinazolin-5-yl}-N-propyl-D-alaninamide]
2.43e-09 | 0.642 | O=C1NCCCC[C@H]1Nc1nc2ccccc2c2nc(-c3ccc(Br)cc3OC(F)(F)F)nn12 [Example 440, (3R)-3-({2-[4-bromo-2-(trifluoromethoxy)phenyl][1,2,4]triazolo[1,5-c]quinazolin-5-yl}amino)azepan-2-one]
1.36e-07 | 29.3 | CCCCNC(=O)[C@H](C)Nc1nc2ccccc2c2nc(-c3cccc(C#N)c3)nn12 [Example 441, N-butyl-N^2-[2-(3-cyanophenyl)[1,2,4]triazolo[1,5-c]quinazolin-5-yl]alaninamide]
4.89e-06 | 264 | CC[C@H](Nc1nc2ccccc2c2nc(-c3cccc(C#N)c3)nn12)C(N)=O [Example 442, (2S)-2-{[2-(3-cyanophenyl)[1,2,4]triazolo[1,5-c]quinazolin-5-yl]amino}butanamide]
1.02e-08 | 0.672 | N#Cc1cccc(-c2nc3c4ccccc4nc(NC4CCCCCNC4=O)n3n2)c1 (stereo not drawn) [Example 443, 3-(5-{[2-oxoazocan-3-yl]amino}[1,2,4]triazolo[1,5-c]quinazolin-2-yl)benzonitrile]
2.92e-09 | 0.51 | CN(C)c1cccc(-c2nc3c4ccccc4nc(N[C@@H]4CCCCNC4=O)n3n2)c1 [Example 446, (3R)-3-({2-[3-(dimethylamino)phenyl][1,2,4]triazolo[1,5-c]quinazolin-5-yl}amino)azepan-2-one]
2.27e-08 | 11.3 | O=C1NCCCCCC1Nc1nc2ccccc2c2nc(-c3cccc(OC(F)(F)F)c3)nn12 (stereo not drawn) [Example 447, 3-({2-[3-(trifluoromethoxy)phenyl][1,2,4]triazolo[1,5-c]quinazolin-5-yl}amino)azocan-2-one]
1.73e-08 | 21 | CSc1cccc(-c2nc3c4ccccc4nc(N[C@@H]4CCCCNC4=O)n3n2)c1 [Example 449, (3R)-3-({2-[3-(methylsulfanyl)phenyl][1,2,4]triazolo[1,5-c]quinazolin-5-yl}amino)azepan-2-one]

The remaining lines, values behind:

SMILES | IC50 (AHR [1]) [M] | IC50 (AHR [2]) [nM]
O=C1NCCNC[C@H]1Nc1nc2c(Cl)cccc2c2nc(-c3ccc(F)cc3)nn12 [Example 420, (6R)-6-{[7-chloro-2-(4-fluorophenyl)[1,2,4]triazolo[1,5-c]quinazolin-5-yl]amino]-1,4-diazepan-5-one] | 9.36e-10 | 0.887
COc1ccc(-c2nc3c4cccc(Cl)c4nc(N[C@@H]4CNCCNC4=O)n3n2)cc1 [Example 421, (6R)-6-{[7-chloro-2-(4-methoxyphenyl)[1,2,4]triazolo[1,5-c]quinazolin-5-yl]amino)-1,4-diazepan-5-one] | 7.09e-10 | 0.69
COc1ccc(-c2nc3c4cccc(C(F)(F)F)c4nc(N[C@@H]4CNCCNC4=O)n3n2)cc1 [Example 422, (6R)-6-{[2-(4-methoxyphenyl)-7-(trifluoromethyl)[1,2,4]triazolo[1,5-c]quinazolin-5-yl]amino}-1,4-diazepan-5-one] | 3.61e-10 | 0.927
O=C1NCCNC[C@H]1Nc1nc2c(C(F)(F)F)cccc2c2nc(-c3ccc(F)cc3)nn12 [Example 423, (6R)-6-{[2-(4-fluorophenyl)-7-(trifluoromethyl)[1,2,4]triazolo[1,5-c]quinazolin-5-yl]amino}-1,4-diazepan-5-one] | 2.81e-10 | 0.349
O=C1NCCNC[C@H]1Nc1nc2c(C(F)(F)F)cccc2c2nc(-c3cccc(F)c3)nn12 [Example 424, (6R)-6-{[2-(3-fluorophenyl)-7-(trifluoromethyl)[1,2,4]triazolo[1,5-c]quinazolin-5-yl]amino}-1,4-diazepan-5-one] | 5.89e-10 | 1.69
Cn1cc(-c2nc3c4cccc(C(F)(F)F)c4nc(N[C@@H]4CNCCNC4=O)n3n2)cn1 [Example 425, (6R)-6-{[2-(1-methyl-1H-pyrazol-4-yl)-7-(trifluoromethyl)[1,2,4]triazolo[1,5-c]quinazolin-5-yl]amino}-1,4-diazepan-5-one] | 6.84e-09 | 23.9
COc1ccc(-c2nc3c4cccc(F)c4nc(N[C@@H]4CNCCNC4=O)n3n2)cc1 [Example 426, (6R)-6-{[7-fluoro-2-(4-methoxyphenyl)[1,2,4]triazolo[1,5-c]quinazolin-5-yl]amino}-1,4-diazepan-5-one] | 1.84e-08 | 14.3
Cn1cc(-c2nc3c4cccc(F)c4nc(N[C@@H]4CNCCNC4=O)n3n2)cn1 [Example 428] | 2.44e-06 | 561
COc1ccc(-c2nc3c4cccc(C(C)C)c4nc(N[C@@H]4CNCCNC4=O)n3n2)cc1 [Example 429, (6R)-6-{[2-(4-methoxyphenyl)-7-(propan-2-yl)[1,2,4]triazolo[1,5-c]quinazolin-5-yl]amino}-1,4-diazepan-5-one] | 7.8e-09 | 70.9
COc1ccc(-c2nc3c4cccc(C5(C(F)(F)F)CC5)c4nc(N[C@@H]4CNCCNC4=O)n3n2)cc1 [Example 431, (6R)-6-({2-(4-methoxyphenyl)-7-[1-(trifluoromethyl)cyclopropyl][1,2,4]triazolo[1,5-c]quinazolin-5-yl}amino)-1,4-diazepan-5-one] | 1.43e-08 | 60.6
COCCn1cc(-c2nc3c4ccccc4nc(N[C@@H]4CCCCNC4=O)n3n2)cn1 [Example 432, (3R)-3-({2-[1-(2-methoxyethyl)-1H-pyrazol-4-yl][1,2,4]triazolo[1,5-c]quinazolin-5-yl}amino)azepan-2-one] | 6.11e-08 | 18.1
COc1ccc(-c2nc3c4ccccc4nc(NC4CCCCCNC4=O)n3n2)cc1 (stereo not drawn) [Example 433, 3-{[2-(4-methoxyphenyl)[1,2,4]triazolo[1,5-c]quinazolin-5-yl]amino}azocan-2-one] | 1.64e-09 | 0.647
CC[C@H](Nc1nc2ccccc2c2nc(-c3ccc(OC)cc3)nn12)C(N)=O [Example 434, (2S)-2-{[2-(4-methoxyphenyl)[1,2,4]triazolo[1,5-c]quinazolin-5-yl]amino}butanamide] | 6.43e-08 | 75
Cn1cc(-c2nc3c4ccccc4nc(N[C@@H]4CCCCNC4=O)n3n2)nn1 [Example 435] | 1.3e-07 | 164
